Values joined by “and” are separate entries in the source; they are usually repeats but may differ in a detail not shown here. Equal entries are not always repeated. *1 amine or outer side, *2 acyl side, *3 side chain or, on linkers, in order; H or OH if unused. Where a SMILES comes first, the peptide text is derived from it. Bridges are numbered along the chain shown (N, C = ends). [ ]: non-standard residue; d: D form. Suberoyl(Gly)2 = O=C(CCCCCCC(=O)NCC(=O)[*:2])NCC(=O)[*:1]; X1 = O=C(O)CCNC(=S)NCCCC[C@H](N[*:1])C(=O)[*:2]; Suberoyl = O=C(CCCCCCC(=O)[*:2])[*:1]
What was measured:
SIRT5 = SIRT5 desuccinylation assay; cited from earlier work
SIRT1 = settings: cited from earlier work
SIRT2 = settings: cited from earlier work
SIRT3 = settings: cited from earlier work
[1] = target: T1, human recombinant GST-SIRT5 (Homo sapiens, UniProt Q9NXA8); assay: HPLC-based in vitro sirtuin inhibition assay, SIRT5-catalyzed deacylation (desuccinylation); format: biochemical; settings: GST-SIRT5 370 nM, 0.8 mM β-NAD+, 0.88 mM succinyl-lysine H3 peptide substrate, 37 °C, 5 min; estimated from Dixon plots
T1 construct: purchased Cayman Chemical (Ann Arbor, Michigan, USA)
T1 sequence (Q9NXA8 37-310): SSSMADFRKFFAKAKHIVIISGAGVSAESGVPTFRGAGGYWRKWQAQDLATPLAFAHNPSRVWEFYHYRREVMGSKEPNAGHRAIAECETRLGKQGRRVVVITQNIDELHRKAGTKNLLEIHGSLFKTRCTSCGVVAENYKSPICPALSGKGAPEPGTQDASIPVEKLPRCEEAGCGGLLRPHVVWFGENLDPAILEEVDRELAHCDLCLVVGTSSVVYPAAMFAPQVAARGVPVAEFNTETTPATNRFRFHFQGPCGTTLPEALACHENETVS
From the text: (§1) The following materials were purchased from commercial vendors for the sirtuin inhibition assay and the pronase digestion assay, and were used as received without further treatment. Sigma-Aldrich China: the active human recombinant His6-SIRT1, Trizma, Hepes, β-NAD^+, a 1.0 M solution of MgCl2 (molecular-biology grade), the pronase from Streptomyces griseus; Cayman Chemical (Ann Arbor, Michigan, USA): the active human recombinant GST-SIRT1, the active human recombinant His6-SIRT2, the active human recombinant His6-SIRT3, the active human recombinant GST-SIRT5, the active human recombinant His6-SIRT6; TCI Shanghai: D,L-dithiothreitol (DTT); Alfa Aesar China: NaCl, KCl.
(§2) The peptide substrates prepared and used in the sirtuin inhibition assay were: the SIRT1/2/3 substrate H2N-HK-[N^ε-acetyl-lysine]-LM-COOH corresponding to amino acids 380–384 of the human p53 protein acetylated at K^382; the SIRT5 substrate CH3CONH-AR-[N^ε-succinyl-lysine]-ST-CONH2 corresponding to amino acids 7–11 of the human histone H3 protein succinylated at K^9; the SIRT6 substrate H2N-EALPK-[N^ε-myristoyl-lysine]-TGGPQ-CONH2 corresponding to amino acids 15–25 of the human tumor necrosis factor α (TNFα) myristoylated at K^20.
(§3) The HPLC-based sirtuin inhibition assay that our laboratory has been using over past several years was employed in the current study and was performed as described previously. […]

[2] = target: T2, human recombinant His6-SIRT2 (Homo sapiens, UniProt Q8IXJ6); assay: HPLC-based in vitro sirtuin inhibition assay, SIRT2-catalyzed deacetylation; format: biochemical; settings: His6-SIRT2 309 nM, 0.5 mM β-NAD+, 0.39 mM acetyl-lysine p53 peptide substrate, 37 °C, 12 min; Dixon plots
T2 construct: purchased Cayman Chemical (Ann Arbor, Michigan, USA)
T2 sequence (Q8IXJ6 1-389): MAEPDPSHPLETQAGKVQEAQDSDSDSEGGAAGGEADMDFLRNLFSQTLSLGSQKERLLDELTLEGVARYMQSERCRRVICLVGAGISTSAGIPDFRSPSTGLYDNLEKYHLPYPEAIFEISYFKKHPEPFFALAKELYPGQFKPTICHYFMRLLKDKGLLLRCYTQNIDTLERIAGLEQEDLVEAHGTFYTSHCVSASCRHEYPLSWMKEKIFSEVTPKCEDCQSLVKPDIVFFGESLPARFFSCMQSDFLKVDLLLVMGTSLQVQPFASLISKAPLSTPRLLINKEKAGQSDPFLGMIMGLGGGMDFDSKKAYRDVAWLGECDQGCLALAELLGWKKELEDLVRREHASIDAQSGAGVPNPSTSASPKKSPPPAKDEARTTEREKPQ
From the text: as §1, §2, §3

[3] = target: T3, human recombinant His6-SIRT1 or GST-SIRT1 (Homo sapiens, UniProt Q96EB6); assay: HPLC-based in vitro sirtuin inhibition assay, SIRT1; format: biochemical; settings: SIRT1 320 nM, 0.5 mM β-NAD+, 0.3 mM acetyl-lysine p53 peptide substrate, 37 °C, 10 min; Dixon plots
T3 construct: His6 or GST (one of the two); purchased Sigma-Aldrich China (His6-SIRT1) or Cayman Chemical (GST-SIRT1)
T3 sequence (Q96EB6 1-747): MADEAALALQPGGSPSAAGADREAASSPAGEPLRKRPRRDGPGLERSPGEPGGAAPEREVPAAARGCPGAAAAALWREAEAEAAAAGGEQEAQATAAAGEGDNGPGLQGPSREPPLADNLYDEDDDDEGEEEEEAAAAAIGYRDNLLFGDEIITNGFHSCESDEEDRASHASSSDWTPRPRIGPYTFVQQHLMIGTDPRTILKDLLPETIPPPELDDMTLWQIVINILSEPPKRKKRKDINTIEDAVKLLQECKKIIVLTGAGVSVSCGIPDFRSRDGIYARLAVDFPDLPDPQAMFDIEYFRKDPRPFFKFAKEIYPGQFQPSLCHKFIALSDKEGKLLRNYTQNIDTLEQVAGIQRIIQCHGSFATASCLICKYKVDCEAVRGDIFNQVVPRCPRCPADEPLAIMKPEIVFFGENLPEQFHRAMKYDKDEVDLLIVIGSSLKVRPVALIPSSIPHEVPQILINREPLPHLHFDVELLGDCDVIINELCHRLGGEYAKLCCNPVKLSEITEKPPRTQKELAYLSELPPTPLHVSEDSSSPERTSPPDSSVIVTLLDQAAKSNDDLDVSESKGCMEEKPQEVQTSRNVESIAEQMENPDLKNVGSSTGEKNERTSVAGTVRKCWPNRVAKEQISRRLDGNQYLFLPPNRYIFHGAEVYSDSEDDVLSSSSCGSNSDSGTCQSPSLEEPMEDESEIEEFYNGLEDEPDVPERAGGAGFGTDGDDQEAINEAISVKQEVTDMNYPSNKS
From the text: as §1, §2, §3

[4] = target: T4, human recombinant His6-SIRT3 (Homo sapiens, UniProt Q9NTG7); assay: HPLC-based in vitro sirtuin inhibition assay, SIRT3; format: biochemical; settings: His6-SIRT3 320 nM, 3.5 mM β-NAD+, 0.105 mM acetyl-lysine p53 peptide substrate, 37 °C, 10 min; Dixon plots
T4 construct: purchased Cayman Chemical (Ann Arbor, Michigan, USA)
T4 sequence (Q9NTG7 1-399): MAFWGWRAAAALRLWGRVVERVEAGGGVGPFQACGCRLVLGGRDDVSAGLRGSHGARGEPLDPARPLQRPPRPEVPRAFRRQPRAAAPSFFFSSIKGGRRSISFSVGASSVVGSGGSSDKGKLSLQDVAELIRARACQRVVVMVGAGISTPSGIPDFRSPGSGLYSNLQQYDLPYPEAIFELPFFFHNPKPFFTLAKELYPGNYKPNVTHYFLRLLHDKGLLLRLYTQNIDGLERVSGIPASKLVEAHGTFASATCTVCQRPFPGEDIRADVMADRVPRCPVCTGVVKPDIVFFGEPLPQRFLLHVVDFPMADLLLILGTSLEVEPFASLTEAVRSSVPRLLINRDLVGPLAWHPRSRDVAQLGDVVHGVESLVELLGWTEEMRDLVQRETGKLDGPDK
From the text: as §1, §2, §3

[5] = target: T5, human recombinant His6-SIRT6 (Homo sapiens, UniProt Q8N6T7); assay: HPLC-based in vitro sirtuin inhibition assay, SIRT6 (demyristoylation); format: biochemical; settings: His6-SIRT6 313 nM, 0.2 mM β-NAD+, 0.02 mM myristoyl-lysine TNFα peptide substrate, 37 °C, 12 min; Dixon plots
T5 construct: purchased Cayman Chemical (Ann Arbor, Michigan, USA)
T5 sequence (Q8N6T7 whole entry): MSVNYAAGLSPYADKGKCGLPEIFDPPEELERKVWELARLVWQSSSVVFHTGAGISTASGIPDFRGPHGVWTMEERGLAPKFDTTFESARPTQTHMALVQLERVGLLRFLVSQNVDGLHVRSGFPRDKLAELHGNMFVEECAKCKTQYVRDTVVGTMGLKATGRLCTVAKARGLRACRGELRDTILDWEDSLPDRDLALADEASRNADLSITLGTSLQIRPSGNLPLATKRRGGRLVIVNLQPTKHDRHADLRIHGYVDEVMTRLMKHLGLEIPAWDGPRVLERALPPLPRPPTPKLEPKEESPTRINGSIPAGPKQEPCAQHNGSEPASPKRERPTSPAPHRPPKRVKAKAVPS
From the text: as §1, §2, §3

| Compound | IC50 (SIRT5) [µM] | IC50 (SIRT1) [µM] | IC50 (SIRT2) [µM] | IC50 (SIRT3) [µM] | IC50 [1] | IC50 [2] | IC50 SIRT1 [3] [µM] | IC50 [4] [µM] | IC50 [5] [µM] |
| --- | --- | --- | --- | --- | --- | --- | --- | --- | --- |
| C=CCN1C(=O)/C(=C/c2ccc(-c3cccc(Cl)c3Cl)o2)C(=O)NC1=S [Compound 3] | 2.3 | 5.3 | 9.7 | > 50 | – | – | – | – | – |
| CC(=O)N[C@H]1CCCCNC(=O)CNC(=O)CCCCCCC(=O)NCC(=O)NCCCC[C@@H](C(=O)N[C@H](C(N)=O)[C@@H](C)O)NC(=O)[C@H](CCCCNC(=S)NCCC(=O)O)NC(=O)[C@H](CCCNC(=N)N)NC1=O [Compound 4] (Ac-KR[X1]KT-NH2; linker 1-4 via Suberoyl(Gly)2) | – | – | – | – | ~6 µM and 6 µM | ~9.2 µM and 9.2 µM | – | – | – |
| CC(=O)N[C@H]1CCCCNC(=O)CCCCCCC(=O)NCCCC[C@@H](C(=O)N[C@H](C(N)=O)[C@@H](C)O)NC(=O)[C@H](CCCCNC(=S)NCCC(=O)O)NC(=O)[C@H](CCCNC(=N)N)NC1=O [Compound 5] (Ac-KR[X1]KT-NH2; linker 1-4 via Suberoyl) | – | – | – | – | ~7.5 µM and 7.5 µM | > 1000 µM | >1000 | > 200 | > 200 |
| CC(=O)N[C@@H](C)C(=O)N[C@@H](CCCNC(=N)N)C(=O)N[C@@H](CCCCNC(=S)NCCC(=O)O)C(=O)N[C@@H](CO)C(=O)N[C@H](C(N)=O)[C@@H](C)O [Compound 6] (Ac-AR[X1]ST-NH2) | – | – | – | – | 7.6 ± 1.5 µM | 96.4 ± 18.5 µM | >1000 | > 1000 | > 1000 |
| CH3CONH-AR-(N^ε-thiosuccinyl-lysine)-ST-CONH2 | ~40 | – | – | – | – | – | – | – | – |

— publication PMC6272981, “A Selective Cyclic Peptidic Human SIRT5 Inhibitor” (Molecules, 2016)
